Assay results: patent US10167262B2, “Herbicidal substituted 3-arylpyrazoles” (FMC CORPORATION, priority 2014, dated 2019)

What was measured:
Assay in all cases: Test C postemergence greenhouse test, plant response rating 0-100
Format in all cases: in vivo
[1] = test system: bermudagrass (Cynodon dactylon); settings: for Plant response rating, Bermudagrass: scale 0 to 100
Outline: (§1)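 Response is a visual 0–100 control rating taken 13 to 15 days post-treatment, with a dash marking no result. Plants ranged 2 to 18 cm when treated postemergence.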

[2] = test system: canarygrass (Phalaris minor); settings: for Plant response rating, Canarygrass: scale 0 to 100
Outline: as §1

[3] = test system: cocklebur (common cocklebur, Xanthium strumarium); settings: for Plant response rating, Cocklebur: scale 0 to 100
Outline: as §1

[4] = test system: deadnettle (henbit deadnettle, Lamium amplexicaule); settings: for Plant response rating, Deadnettle: scale 0 to 100
Outline: as §1

[5] = test system: goosegrass (Eleusine indica); settings: for Plant response rating, Goosegrass: scale 0 to 100
Outline: as §1

[6] = test system: green foxtail (Setaria viridis); settings: for Plant response rating, Foxtail, Green: scale 0 to 100
Outline: as §1

[7] = test system: surinam grass (Brachiaria decumbens); settings: for Plant response rating, Surinam Grass: scale 0 to 100
Outline: as §1

[8] = test system: windgrass (Apera spica-venti); settings: for Plant response rating, Windgrass: scale 0 to 100
Outline: as §1

[9] = test system: winter barley (Hordeum vulgare); settings: for Plant response rating, Barley: scale 0 to 100
Outline: as §1

[10] = test system: woolly cupgrass (Eriochloa villosa); settings: for Plant response rating, Cupgrass, Woolly: scale 0 to 100
Outline: as §1

Row | Structure (SMILES) | Plant response rating (0 to 100), Bermudagrass ([1]; 62 g ai/ha) | Plant response rating (0 to 100), Bermudagrass ([1]; 125 g ai/ha) | Plant response rating, Bermudagrass ([1]; 250 g ai/ha) | Plant response rating (0 to 100), Canarygrass ([2]; 62 g ai/ha) | Plant response rating (0 to 100), Canarygrass ([2]; 125 g ai/ha) | Plant response rating, Canarygrass ([2]; 250 g ai/ha) | Plant response rating (0 to 100), Cocklebur ([3]; 62 g ai/ha) | Plant response rating (0 to 100), Cocklebur ([3]; 125 g ai/ha) | Plant response rating, Cocklebur ([3]; 250 g ai/ha) | Plant response rating (0 to 100), Deadnettle ([4]; 62 g ai/ha) | Plant response rating (0 to 100), Deadnettle ([4]; 125 g ai/ha) | Plant response rating, Deadnettle ([4]; 250 g ai/ha) | Plant response rating (0 to 100), Goosegrass ([5]; 62 g ai/ha) | Plant response rating (0 to 100), Goosegrass ([5]; 125 g ai/ha) | Plant response rating, Goosegrass ([5]; 250 g ai/ha) | Plant response rating (0 to 100), Foxtail, Green ([6]; 62 g ai/ha) | Plant response rating (0 to 100), Foxtail, Green ([6]; 125 g ai/ha) | Plant response rating, Foxtail, Green ([6]; 250 g ai/ha) | Plant response rating (0 to 100), Surinam Grass ([7]; 62 g ai/ha) | Plant response rating (0 to 100), Surinam Grass ([7]; 125 g ai/ha) | also measured
1 | CCCn1cc(C(=O)c2ccccc2)c(-c2cc(Cl)cc(Cl)c2)n1 [Compound 61, [3-(3,5-dichlorophenyl)-1-propyl-1H-pyrazol-4-yl]phenylmethanone] | 5 | 5 | 5 | 0 | 0 | 0 | 10 | 20 | 35 | 0 | 0 | 0 | 0 | 0 | 5 | 0 | 0 | 0 | 0 | 0 | Plant response rating (0 to 100), Bermudagrass ([1]; 31 g ai/ha): 0; Plant response rating (0 to 100), Canarygrass ([2]; 31 g ai/ha): 0; Plant response rating (0 to 100), Cocklebur ([3]; 31 g ai/ha): 10; Plant response rating (0 to 100), Deadnettle ([4]; 31 g ai/ha): 0; Plant response rating (0 to 100), Goosegrass ([5]; 31 g ai/ha): 0; Plant response rating (0 to 100), Foxtail, Green ([6]; 31 g ai/ha): 0; Plant response rating, Surinam Grass ([7]; 250 g ai/ha): 0; Plant response rating (0 to 100), Windgrass ([8]; 62 g ai/ha): 0; Plant response rating (0 to 100), Windgrass ([8]; 125 g ai/ha): 0; Plant response rating, Windgrass ([8]; 250 g ai/ha): 0; Plant response rating (0 to 100), Barley ([9]; 31 g ai/ha): 0; Plant response rating (0 to 100), Barley ([9]; 62 g ai/ha): 0; Plant response rating (0 to 100), Barley ([9]; 125 g ai/ha): 0; Plant response rating, Barley ([9]; 250 g ai/ha): 0; Plant response rating (0 to 100), Cupgrass, Woolly ([10]; 31 g ai/ha): 5; Plant response rating (0 to 100), Cupgrass, Woolly ([10]; 62 g ai/ha): 10; Plant response rating (0 to 100), Cupgrass, Woolly ([10]; 125 g ai/ha): 10; Plant response rating, Cupgrass, Woolly ([10]; 250 g ai/ha): 15
2 | Fc1ccc(NN=C(c2ccccc2)c2c[nH]nc2-c2cc(Cl)cc(Cl)c2)cc1 [Compound 35] | 0 | 0 | 0 | 0 | 0 | 0 | 60 | 60 | 75 | 0 | 0 | 0 | 0 | 0 | 0 | 0 | 0 | 0 | 0 | 0 | Plant response rating, Bermudagrass ([1]; 500 g ai/ha): 0; Plant response rating, Canarygrass ([2]; 500 g ai/ha): 0; Plant response rating, Cocklebur ([3]; 500 g ai/ha): 75; Plant response rating, Deadnettle ([4]; 500 g ai/ha): 0; Plant response rating, Goosegrass ([5]; 500 g ai/ha): 0; Plant response rating, Foxtail, Green ([6]; 500 g ai/ha): 20; Plant response rating, Surinam Grass ([7]; 250 g ai/ha): 0; Plant response rating, Surinam Grass ([7]; 500 g ai/ha): 0; Plant response rating (0 to 100), Windgrass ([8]; 62 g ai/ha): 0; Plant response rating (0 to 100), Windgrass ([8]; 125 g ai/ha): 0; Plant response rating, Windgrass ([8]; 250 g ai/ha): 0; Plant response rating, Windgrass ([8]; 500 g ai/ha): 0; Plant response rating (0 to 100), Barley ([9]; 62 g ai/ha): 0; Plant response rating (0 to 100), Barley ([9]; 125 g ai/ha): 0; Plant response rating, Barley ([9]; 250 g ai/ha): 0; Plant response rating, Barley ([9]; 500 g ai/ha): 0; Plant response rating (0 to 100), Cupgrass, Woolly ([10]; 62 g ai/ha): 5; Plant response rating (0 to 100), Cupgrass, Woolly ([10]; 125 g ai/ha): 5; Plant response rating, Cupgrass, Woolly ([10]; 250 g ai/ha): 5; Plant response rating, Cupgrass, Woolly ([10]; 500 g ai/ha): 5
3 | Fc1cccc(NN=C(c2ccccc2)c2c[nH]nc2-c2cc(Cl)cc(Cl)c2)c1 [Compound 58] | 0 | 0 | 0 | 0 | 0 | 0 | 60 | 75 | 80 | 0 | 0 | 0 | 0 | 0 | 0 | 0 | 0 | 0 | 0 | 0 | Plant response rating, Bermudagrass ([1]; 500 g ai/ha): 10; Plant response rating, Canarygrass ([2]; 500 g ai/ha): 0; Plant response rating, Cocklebur ([3]; 500 g ai/ha): 95; Plant response rating, Deadnettle ([4]; 500 g ai/ha): 0; Plant response rating, Goosegrass ([5]; 500 g ai/ha): 5; Plant response rating, Foxtail, Green ([6]; 500 g ai/ha): 30; Plant response rating, Surinam Grass ([7]; 250 g ai/ha): 0; Plant response rating, Surinam Grass ([7]; 500 g ai/ha): 0; Plant response rating (0 to 100), Windgrass ([8]; 62 g ai/ha): 0; Plant response rating (0 to 100), Windgrass ([8]; 125 g ai/ha): 0; Plant response rating, Windgrass ([8]; 250 g ai/ha): 0; Plant response rating, Windgrass ([8]; 500 g ai/ha): 0; Plant response rating (0 to 100), Barley ([9]; 62 g ai/ha): 0; Plant response rating (0 to 100), Barley ([9]; 125 g ai/ha): 0; Plant response rating, Barley ([9]; 250 g ai/ha): 0; Plant response rating, Barley ([9]; 500 g ai/ha): 0; Plant response rating (0 to 100), Cupgrass, Woolly ([10]; 62 g ai/ha): 0; Plant response rating (0 to 100), Cupgrass, Woolly ([10]; 125 g ai/ha): 0; Plant response rating, Cupgrass, Woolly ([10]; 250 g ai/ha): 0; Plant response rating, Cupgrass, Woolly ([10]; 500 g ai/ha): 0
4 | CCn1cc(C(=NN2CCCC2)c2ccccc2)c(-c2cc(Cl)cc(Cl)c2)n1 [Compound 37] | 0 | 0 | 0 | 0 | 0 | 0 | 10 | 15 | 20 | 0 | 0 | 0 | 0 | 0 | 0 | 0 | 0 | 0 | 0 | 0 | Plant response rating (0 to 100), Bermudagrass ([1]; 31 g ai/ha): 0; Plant response rating (0 to 100), Canarygrass ([2]; 31 g ai/ha): 0; Plant response rating (0 to 100), Cocklebur ([3]; 31 g ai/ha): 5; Plant response rating (0 to 100), Deadnettle ([4]; 31 g ai/ha): 0; Plant response rating (0 to 100), Goosegrass ([5]; 31 g ai/ha): 0; Plant response rating (0 to 100), Foxtail, Green ([6]; 31 g ai/ha): 0; Plant response rating, Surinam Grass ([7]; 250 g ai/ha): 0; Plant response rating (0 to 100), Windgrass ([8]; 62 g ai/ha): 0; Plant response rating (0 to 100), Windgrass ([8]; 125 g ai/ha): 0; Plant response rating, Windgrass ([8]; 250 g ai/ha): 0; Plant response rating (0 to 100), Barley ([9]; 31 g ai/ha): 0; Plant response rating (0 to 100), Barley ([9]; 62 g ai/ha): 0; Plant response rating (0 to 100), Barley ([9]; 125 g ai/ha): 0; Plant response rating, Barley ([9]; 250 g ai/ha): 0; Plant response rating (0 to 100), Cupgrass, Woolly ([10]; 31 g ai/ha): 5; Plant response rating (0 to 100), Cupgrass, Woolly ([10]; 62 g ai/ha): 5; Plant response rating (0 to 100), Cupgrass, Woolly ([10]; 125 g ai/ha): 5; Plant response rating, Cupgrass, Woolly ([10]; 250 g ai/ha): 5
